Reference: publication PMC5513037, “Examining the influence of specificity ligands and ATP-competitive ligands on the overall effectiveness of bivalent kinase inhibitors” (Proteome Science, 2017)

How the values were obtained:
Test in all cases: KAM-matrix competition in K562 lysate;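 as to 0.001 uM KAM: median log10 fold change of treatment over DMSO control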;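 as to 0.01 uM KAM: median log10 fold change of treatment over DMSO control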;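 as to 0.1 uM KAM: median log10 fold change of treatment over DMSO control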;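 as to 1 uM KAM: median log10 fold change of treatment over DMSO control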;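 as to 10 uM KAM: median log10 fold change of treatment over DMSO control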
Format in all cases: binding
ACVR1B = biological target: T1, ACVR1B (Homo sapiens, UniProt P36896)
T1 construct: endogenous in cells; host or cells: K562
T1 sequence (P36896 24-505): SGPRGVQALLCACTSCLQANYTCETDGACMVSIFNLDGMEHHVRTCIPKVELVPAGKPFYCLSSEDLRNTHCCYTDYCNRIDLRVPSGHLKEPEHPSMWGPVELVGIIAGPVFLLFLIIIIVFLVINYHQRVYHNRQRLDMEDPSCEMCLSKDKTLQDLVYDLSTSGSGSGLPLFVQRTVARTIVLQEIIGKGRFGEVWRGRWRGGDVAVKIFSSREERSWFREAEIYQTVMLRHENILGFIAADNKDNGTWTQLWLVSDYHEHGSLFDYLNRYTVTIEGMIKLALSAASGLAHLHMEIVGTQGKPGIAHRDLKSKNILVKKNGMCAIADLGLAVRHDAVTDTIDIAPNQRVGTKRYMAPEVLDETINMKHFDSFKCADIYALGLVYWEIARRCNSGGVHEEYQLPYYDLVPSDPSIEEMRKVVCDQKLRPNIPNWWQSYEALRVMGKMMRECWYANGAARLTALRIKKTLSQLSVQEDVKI
Method: (§1) Supplement 12953_2017_125_MOESM1_ESM.zip/MS_Supp Info.xlsx, sheet "KAM" | column: 10 uM KAM; 1 uM KAM; 0.1 uM KAM; 0.01 uM KAM; 0.001 uM KAM; RB50

ADRBK1 = biological target: T2, ADRBK1 (Homo sapiens, UniProt P25098);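 as to 0.001 uM KAM: median log10 fold change of treatment over DMSO control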;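 as to 0.01 uM KAM: median log10 fold change of treatment over DMSO control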;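 as to 0.1 uM KAM: median log10 fold change of treatment over DMSO control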;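 as to 1 uM KAM: median log10 fold change of treatment over DMSO control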;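 as to 10 uM KAM: median log10 fold change of treatment over DMSO control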
T2 construct: endogenous in cells; host or cells: K562
T2 sequence (P25098 1-689): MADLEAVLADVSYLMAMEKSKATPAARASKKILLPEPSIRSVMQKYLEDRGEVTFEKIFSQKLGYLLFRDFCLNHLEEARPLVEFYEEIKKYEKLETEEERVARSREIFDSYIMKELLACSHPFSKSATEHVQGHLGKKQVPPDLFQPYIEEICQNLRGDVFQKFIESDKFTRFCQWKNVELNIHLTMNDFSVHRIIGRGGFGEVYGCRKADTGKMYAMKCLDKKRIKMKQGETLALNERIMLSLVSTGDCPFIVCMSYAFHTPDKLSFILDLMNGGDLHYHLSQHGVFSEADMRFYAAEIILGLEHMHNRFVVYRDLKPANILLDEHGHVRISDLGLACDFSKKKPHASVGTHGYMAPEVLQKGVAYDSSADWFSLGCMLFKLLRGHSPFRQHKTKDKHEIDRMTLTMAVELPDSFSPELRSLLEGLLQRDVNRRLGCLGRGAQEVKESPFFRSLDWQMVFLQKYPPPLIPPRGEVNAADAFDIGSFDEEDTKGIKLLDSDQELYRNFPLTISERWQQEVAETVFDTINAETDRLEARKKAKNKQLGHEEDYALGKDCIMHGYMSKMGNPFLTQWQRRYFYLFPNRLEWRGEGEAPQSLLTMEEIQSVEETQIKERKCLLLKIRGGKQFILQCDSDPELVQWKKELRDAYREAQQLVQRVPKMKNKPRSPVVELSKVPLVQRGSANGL
Method: as §1

HIPK2 = biological target: T3, HIPK2 (Homo sapiens, UniProt Q9H2X6)
T3 construct: endogenous in cells; host or cells: K562 cell lysate
Method: as §1

SIK3 = biological target: T4, SIK3 (Homo sapiens, UniProt Q9Y2K2);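 as to 0.001 uM KAM: median log10 fold change of treatment over DMSO control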;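 as to 0.01 uM KAM: median log10 fold change of treatment over DMSO control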;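 as to 0.1 uM KAM: median log10 fold change of treatment over DMSO control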;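 as to 1 uM KAM: median log10 fold change of treatment over DMSO control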;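 as to 10 uM KAM: median log10 fold change of treatment over DMSO control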
T4 construct: endogenous in cells; host or cells: K562
Method: as §1

STK26 = biological target: T5, STK26 (Homo sapiens, UniProt Q9P289)
T5 construct: endogenous in cells; host or cells: K562
Method: as §1

STK4 = biological target: T6, STK4 (Homo sapiens, UniProt Q13043)
T6 construct: endogenous in cells; host or cells: K562
T6 sequence (Q13043 1-487): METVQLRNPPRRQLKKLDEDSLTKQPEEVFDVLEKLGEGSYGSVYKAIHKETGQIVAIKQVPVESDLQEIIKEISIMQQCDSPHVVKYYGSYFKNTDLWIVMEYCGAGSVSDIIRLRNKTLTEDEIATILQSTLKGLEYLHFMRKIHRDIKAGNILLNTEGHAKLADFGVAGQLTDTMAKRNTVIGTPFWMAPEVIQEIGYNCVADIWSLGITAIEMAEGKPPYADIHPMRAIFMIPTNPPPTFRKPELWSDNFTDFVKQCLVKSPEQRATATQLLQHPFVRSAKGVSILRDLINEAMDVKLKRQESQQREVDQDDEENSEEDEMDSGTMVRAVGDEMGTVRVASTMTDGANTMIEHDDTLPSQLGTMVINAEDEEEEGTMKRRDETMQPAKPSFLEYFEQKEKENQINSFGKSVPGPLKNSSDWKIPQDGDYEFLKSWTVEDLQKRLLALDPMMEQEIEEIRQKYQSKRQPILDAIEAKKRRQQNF
Method: as §1

[1] = read-out: RB50 (the source's name)
[2] = KAM 0.001-10 uM, read-out: RB50 (the source's name)

T4 sequence (Q9Y2K2 whole entry): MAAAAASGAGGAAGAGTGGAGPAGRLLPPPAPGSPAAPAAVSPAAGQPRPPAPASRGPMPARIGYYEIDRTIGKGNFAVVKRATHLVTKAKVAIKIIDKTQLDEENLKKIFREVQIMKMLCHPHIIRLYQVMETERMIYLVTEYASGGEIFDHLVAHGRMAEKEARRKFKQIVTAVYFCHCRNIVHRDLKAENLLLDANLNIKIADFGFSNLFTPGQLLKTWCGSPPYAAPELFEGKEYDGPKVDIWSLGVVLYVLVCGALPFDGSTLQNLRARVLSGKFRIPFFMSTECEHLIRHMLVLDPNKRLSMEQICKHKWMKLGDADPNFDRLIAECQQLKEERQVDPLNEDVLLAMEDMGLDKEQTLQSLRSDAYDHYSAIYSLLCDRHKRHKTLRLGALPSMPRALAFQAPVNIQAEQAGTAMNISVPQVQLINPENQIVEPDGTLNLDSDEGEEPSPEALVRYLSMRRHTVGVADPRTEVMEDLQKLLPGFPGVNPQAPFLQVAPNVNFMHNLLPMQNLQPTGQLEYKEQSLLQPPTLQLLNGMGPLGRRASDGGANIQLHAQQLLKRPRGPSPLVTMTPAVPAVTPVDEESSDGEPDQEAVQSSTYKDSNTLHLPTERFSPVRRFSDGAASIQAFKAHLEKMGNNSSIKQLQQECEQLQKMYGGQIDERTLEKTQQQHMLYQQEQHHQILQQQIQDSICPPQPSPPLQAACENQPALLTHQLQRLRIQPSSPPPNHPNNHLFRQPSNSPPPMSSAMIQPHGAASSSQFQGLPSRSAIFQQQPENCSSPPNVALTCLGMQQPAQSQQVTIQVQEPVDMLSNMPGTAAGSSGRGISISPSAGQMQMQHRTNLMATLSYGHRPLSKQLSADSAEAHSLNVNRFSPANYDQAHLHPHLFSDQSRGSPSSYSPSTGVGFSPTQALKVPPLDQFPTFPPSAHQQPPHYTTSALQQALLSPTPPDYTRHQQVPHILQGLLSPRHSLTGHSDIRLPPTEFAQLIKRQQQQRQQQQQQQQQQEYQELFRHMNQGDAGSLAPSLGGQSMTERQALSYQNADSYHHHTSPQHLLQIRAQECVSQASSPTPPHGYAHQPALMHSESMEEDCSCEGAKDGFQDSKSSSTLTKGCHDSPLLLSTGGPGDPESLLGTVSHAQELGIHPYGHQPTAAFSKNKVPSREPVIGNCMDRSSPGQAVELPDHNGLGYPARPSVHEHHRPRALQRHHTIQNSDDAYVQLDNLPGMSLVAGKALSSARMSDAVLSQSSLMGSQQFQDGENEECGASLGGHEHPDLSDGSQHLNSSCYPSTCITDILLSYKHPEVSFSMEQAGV
T3 sequence (Q9H2X6 whole entry): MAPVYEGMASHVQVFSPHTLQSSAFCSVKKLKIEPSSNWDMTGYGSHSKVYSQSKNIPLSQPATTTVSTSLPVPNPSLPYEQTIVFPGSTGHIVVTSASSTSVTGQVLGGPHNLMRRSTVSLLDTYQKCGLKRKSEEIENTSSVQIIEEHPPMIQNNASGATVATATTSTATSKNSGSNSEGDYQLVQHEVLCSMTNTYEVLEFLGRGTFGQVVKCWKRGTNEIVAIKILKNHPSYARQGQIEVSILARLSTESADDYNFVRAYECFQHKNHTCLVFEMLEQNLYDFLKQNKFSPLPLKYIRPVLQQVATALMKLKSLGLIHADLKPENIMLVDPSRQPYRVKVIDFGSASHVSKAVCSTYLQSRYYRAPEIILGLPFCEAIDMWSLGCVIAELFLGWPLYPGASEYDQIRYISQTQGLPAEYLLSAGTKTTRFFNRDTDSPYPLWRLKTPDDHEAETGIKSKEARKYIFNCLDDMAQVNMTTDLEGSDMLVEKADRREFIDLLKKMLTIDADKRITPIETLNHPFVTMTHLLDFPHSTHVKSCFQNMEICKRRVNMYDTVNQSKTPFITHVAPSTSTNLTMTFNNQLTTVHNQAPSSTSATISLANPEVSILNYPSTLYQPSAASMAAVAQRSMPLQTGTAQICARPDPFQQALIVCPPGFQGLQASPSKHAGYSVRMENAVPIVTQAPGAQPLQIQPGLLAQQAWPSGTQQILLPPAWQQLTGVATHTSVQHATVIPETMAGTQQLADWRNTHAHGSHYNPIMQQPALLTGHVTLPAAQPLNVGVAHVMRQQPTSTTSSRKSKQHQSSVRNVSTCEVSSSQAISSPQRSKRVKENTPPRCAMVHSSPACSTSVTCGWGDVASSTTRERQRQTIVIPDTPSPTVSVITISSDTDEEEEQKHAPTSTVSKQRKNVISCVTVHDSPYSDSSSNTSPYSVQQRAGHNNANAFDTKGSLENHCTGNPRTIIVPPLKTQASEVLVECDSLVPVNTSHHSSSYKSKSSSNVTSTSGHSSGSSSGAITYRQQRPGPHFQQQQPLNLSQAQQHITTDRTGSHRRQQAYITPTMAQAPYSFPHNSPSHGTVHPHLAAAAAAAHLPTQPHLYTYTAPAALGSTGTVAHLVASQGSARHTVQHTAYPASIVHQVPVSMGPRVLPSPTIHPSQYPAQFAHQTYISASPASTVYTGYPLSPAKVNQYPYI
T5 sequence (Q9P289 whole entry): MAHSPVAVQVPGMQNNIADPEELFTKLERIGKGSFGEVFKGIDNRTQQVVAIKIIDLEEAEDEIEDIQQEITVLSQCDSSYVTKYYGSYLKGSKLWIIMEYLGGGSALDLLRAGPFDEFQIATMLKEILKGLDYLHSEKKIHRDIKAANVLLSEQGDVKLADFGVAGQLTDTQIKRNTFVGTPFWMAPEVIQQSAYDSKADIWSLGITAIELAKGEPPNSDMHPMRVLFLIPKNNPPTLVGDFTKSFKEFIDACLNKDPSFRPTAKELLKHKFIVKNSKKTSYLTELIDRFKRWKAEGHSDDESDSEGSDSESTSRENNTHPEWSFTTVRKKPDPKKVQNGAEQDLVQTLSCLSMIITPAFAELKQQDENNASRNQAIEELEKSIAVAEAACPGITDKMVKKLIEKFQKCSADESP

For N#CCc1ccc(Nc2nc(NCCCN)cc(Nc3cc(C4CC4)[nH]n3)n2)cc1 [KAM], the “median Log10 fold change” value (ACVR1B; 0.001 uM KAM) was -0.01715, the “median Log10 fold change” value (ACVR1B; 0.01 uM KAM) was -0.04575 and the “median Log10 fold change” value (ACVR1B; 0.1 uM KAM) was -0.2439. The “median Log10 fold change” value (ACVR1B; 1 uM KAM) was -0.5931, the “median Log10 fold change” value (ACVR1B; 10 uM KAM) was -0.7717 and the IC50 (ACVR1B; [1]) was 169 nM. For the same molecule, the IC50 (ADRBK1; [2]) was > 10000 nM, the “0.001 uM KAM” value (ADRBK1; relative to 0 uM KAM = 0) was 0.02352 and the “0.01 uM KAM” value (ADRBK1; relative to 0 uM KAM = 0) was 0.07327. The “0.1 uM KAM” value (ADRBK1; relative to 0 uM KAM = 0) was 0.03347, the “1 uM KAM” value (ADRBK1; relative to 0 uM KAM = 0) was 0.04428 and the “10 uM KAM” value (ADRBK1; relative to 0 uM KAM = 0) was 0.02417. The “median Log10 fold change” value (HIPK2; 0.001 uM KAM) was -0.003211, the “median Log10 fold change” value (HIPK2; 0.01 uM KAM) was 0.02239 and the “median Log10 fold change” value (HIPK2; 0.1 uM KAM) was -0.07372. The “median Log10 fold change” value (HIPK2; 1 uM KAM) was -0.2033, the “median Log10 fold change” value (HIPK2; 10 uM KAM) was -0.3492 and the IC50 (HIPK2; [1]) was 4260 nM. The IC50 (SIK3; [2]) was > 10000 nM, the “0.001 uM KAM” value (SIK3; relative to 0 uM KAM = 0) was -0.07223 and the “0.01 uM KAM” value (SIK3; relative to 0 uM KAM = 0) was -0.0771. For the same molecule, the “0.1 uM KAM” value (SIK3; relative to 0 uM KAM = 0) was -0.08847, the “1 uM KAM” value (SIK3; relative to 0 uM KAM = 0) was -0.01623 and the “10 uM KAM” value (SIK3; relative to 0 uM KAM = 0) was -0.07209. The “median Log10 fold change” value (STK26; 0.001 uM KAM) was -0.05178, the “median Log10 fold change” value (STK26; 0.01 uM KAM) was -0.01072 and the “median Log10 fold change” value (STK26; 0.1 uM KAM) was -0.2654. The “median Log10 fold change” value (STK26; 1 uM KAM) was -0.4176, the “median Log10 fold change” value (STK26; 10 uM KAM) was -0.5788 and the IC50 (STK26; [1]) was 249 nM. The “median Log10 fold change” value (STK4; 0.001 uM KAM) was -0.002208, the “median Log10 fold change” value (STK4; 0.01 uM KAM) was -0.01313 and the “median Log10 fold change” value (STK4; 0.1 uM KAM) was -0.2747. The “median Log10 fold change” value (STK4; 1 uM KAM) was -0.6557, the “median Log10 fold change” value (STK4; 10 uM KAM) was -0.6912 and the IC50 (STK4; [1]) was 146 nM.
